Entries after “also recorded” stand apart in the source; their conditions may differ. Marks after values point to notes of the source that are not given here.
Columns and labels:
laying hens = test: Feeding laying hens: laying performance and egg parameters; format: in vivo; conditions: for Albumen / Average weight of the eggs / Consumption index / Daily food intake / Laying frequency / Weight of eggs / Yolk / Final body weight: 0.13% methionine equivalent in feed, mean; for Final body weight: after 6 weeks
Protocol: Eighty laying hens aged 45 weeks were housed for 6 weeks and were distributed at random into […] equal groups (20 per group). Each hen was kept in an individual cage at a temperature of (20±2° C.) with controlled lighting conditions. All the hens were offered a similar basic diet, with or without addition of DLM, of HMTBA-Ca or of a 50/50 mixture (HMTBA-Ca: […] All the laying hens had free access to drinking water and were fed throughout the 6-week period of the experiment.

growing chickens [1] = test: Feeding growing chickens: growth performance; format: in vivo; conditions: 46-day-old chickens, 0.3% in feed (0.24% finishing phase); mean ± standard deviation
Protocol: (§1) One hundred and forty-seven commercial chickens (1 day old, 48 g) were housed from day 1 to day 46, including the starting phase (days 1-21) and the finishing phase (days 22-46). All the chickens were randomly distributed in seven equal groups (21 per group), and each group was made up of three subgroups of 7 birds each. Each subgroup was kept in an enclosure at a temperature of (28±2° C.), with controlled lighting conditions. All the chickens were offered a similar basic diet, with or without addition of DLM, HMTBA or HMTBA-Ca at levels of 0 (control) or 0.3% in the starting phase and 0 or 0.24% in the finishing phase (Table 4). All the chickens had free access to food and drinking water throughout the test period of 46 days. The weight of the chickens was measured every week and food intake was monitored throughout the experiment.
(§2) At the end of the experiment, the birds were weighed individually and sacrificed. The abdominal fat, the muscles of the thigh and of the breast were taken, lyophilized and weighed.

growing chickens [2] = test: Feeding growing chickens: composition of the carcass; format: in vivo; conditions: for DB, weight of the muscles of the breast / DL, weight of the muscles of the thigh / PDAT, ratio of the weight of the abdominal fat to that of the eviscerated chicken / PDB, ratio of the weight of the muscles of the breast (without bone or skin) to that of the eviscerated chicken / PDL, ratio of the weight of the muscles of the thigh (without bone or skin) to that of the eviscerated chicken: 46-day chickens, mean ± standard deviation
Protocol: as §1, §2

growing chickens [3] = test: Feeding growing chickens: apparent digestibility of nutrients; format: in vivo; conditions: 0.3% in feed; for Apparent digestibility of ash / Apparent digestibility of crude fats / Apparent digestibility of crude proteins / Apparent digestibility of dry matter: 46-day chickens, mean ± standard deviation for 10 chickens
Protocol: as §1
The excrement of the chickens was collected for the 3 days following the 42nd day of the experiment, were frozen and stored (at −20° C.) for later chemical analyses.

[4] = Crystallinity by DSC in isothermal mode and X-ray diffraction; format: physicochemical; conditions: deduced from DSC (R) or X-ray diffraction (T7)
Protocol: Samples T7 and R were analysed by X-ray diffraction using a Bruker APEX-II Quasar diffractometer equipped with a molybdenum microsource (λ=0.71073 Å). Each sample was ground beforehand in a mortar for two minutes. Each of the powders thus obtained is then transferred to a capillary with diameter of 0.5 mm that is transparent to X-rays, and is then mounted on a goniometer. The recording characteristics are perfectly identical for each sample, namely: […]

Row | Structure (SMILES) | Albumen (laying hens; 6 weeks) | Average weight of the eggs (laying hens; 6 weeks) | Consumption index (laying hens; 6 weeks) | Daily food intake (laying hens; 6 weeks) | Laying frequency (laying hens; 6 weeks) | Weight of eggs (laying hens; 6 weeks) | Yolk (laying hens; 6 weeks) | Final body weight (laying hens) | Feeding:gain (growing chickens [1]) | Final body weight (growing chickens [1]) | Food intake (growing chickens [1]) | Gain in body weight (growing chickens [1]) | DB, weight of the muscles of the breast (growing chickens [2]; 0.3% in feed) | DL, weight of the muscles of the thigh (growing chickens [2]; 0.3% in feed) | PDAT, ratio of the weight of the abdominal fat to that of the eviscerated chicken (growing chickens [2]; 0.3% in feed) | PDB, ratio of the weight of the muscles of the breast (without bone or skin) to that of the eviscerated chicken (growing chickens [2]; 0.3% in feed) | PDL, ratio of the weight of the muscles of the thigh (without bone or skin) to that of the eviscerated chicken (growing chickens [2]; 0.3% in feed) | Apparent digestibility of ash (growing chickens [3]) | Apparent digestibility of crude fats (growing chickens [3]) | Apparent digestibility of crude proteins (growing chickens [3]) | also measured
1 | CSCCC(N)C(=O)O (racemic) [DLM, DL-methionine, reference compound] | 38.38 g/egg | 63.4 g/egg | 1.87 g feed/g egg | 112.4 g/day | 95% | 60.3 g/day | 16.38 g/egg | 1834.9 g/hen | 2.01 ± 0.10 g:g | 3.17 ± 0.15^ab kg/chicken | 141.51 ± 0.24 g/chicken/day | 70.47 ± 3.37^ab g/chicken/day | 596.88 ± 56.68^abc g | 586.03 ± 23.43^ab g | 1.88 ± 0.43^a % | 22.77 ± 1.44^b % | 20.12 ± 0.22^a % | 56.02 ± 1.01^b % | 86.15 ± 0.93% | 63.70 ± 2.85^cd % | Apparent digestibility of dry matter (growing chickens [3]): 78.22 ± 1.70^c %
2 | CSCCC(O)C(=O)[O-].CSCCC(O)C(=O)[O-].[Ca+2] (stereo not drawn) [HMTBA-Ca, (HMTBA)2Ca] | 39.53 g/egg | 64.9 g/egg | 1.82 g feed/g egg | 112.7 g/day | 95% | 62.0 g/day | 16.47 g/egg | 1897.2 g/hen | 1.91 ± 0.12 g:g | 3.38 ± 0.28^ab kg/chicken | 144.53 ± 20.93 g/chicken/day | 75.08 ± 6.18^ab g/chicken/day | 617.54 ± 45.21^bc g | 588.64 ± 38.07^ab g | 2.49 ± 0.59^b % | 22.98 ± 3.00^b % | 22.06 ± 1.64^c % | 44.62 ± 0.89^a % | 90.28 ± 0.20^c % | 66.44 ± 0.37^cd % | Albumen content of the eggs, more relative to the eggs of hens fed with DLM (laying hens; 6 weeks, relative to DLM): 3%; Average weight of the eggs, higher relative to that obtained with DLM (laying hens; 6 weeks, relative to DLM): 2.3%; Percentage of abdominal fat (in words) (growing chickens [2]; chickens, 0.3% in feed, 46 days): increase in the percentage of abdominal fat; Weight of the muscles of the thigh and breast relative to DLM / the other groups (in words) (growing chickens [2]; chickens, 46 days): significantly higher; also recorded: highest weight of muscles of the thigh and breast; Apparent digestibility of dry matter (growing chickens [3]): 81.80 ± 0.32^d %; Digestibility of the nutrients relative to the other two forms of methionine (in words) (growing chickens [3]; chickens, 46 days): far better digestibility
3 | CSCCC(O)C(=O)[O-].CSCCC(O)C(=O)[O-].[Ca+2] (stereo not drawn) [R, (HMTBA)2Ca] |  |  |  |  |  |  |  |  |  |  |  |  |  |  |  |  |  |  |  |  | Degree of crystallinity [4]: 100%

From patent US9718769B2, “Pulverulent compositions of a complex between an acid and a metal and method of preparation thereof” (INNOV'IA 3I, priority 2012, dated 2017)
